Measured values from ChEMBL document CHEMBL1148364, “Structure-based design, synthesis, and structure-activity relationship studies of novel non-nucleoside adenosine deaminase inhibitors” (J Med Chem, 2004).

tested on: not listed separately; assay: AUC 0-8 hr value in rats at 10 mg/kg; type: ADME, organism-based; set-up: time < 8 hr, dose 10 mg/kg; conditions: rat, plasma

Row | SMILES | AUC(0-t) at 8 h
1 | Cn1cc(CC[C@H](CO)n2cnc(C(N)=O)c2)c2cc(OCCCc3ccc(Cl)cc3)ccc21 | 260 ng·h/mL

tested on: not listed separately; assay: Oral bioavailability in rats at 10 mg/kg; type: ADME, organism-based; conditions: rat, in vivo

Row | SMILES | bioavailability
2 | Cn1cc(CC[C@H](CO)n2cnc(C(N)=O)c2)c2cc(OCCCc3ccc(Cl)cc3)ccc21 | 10%

tested on: not listed separately; assay: Cmax value in rats at 10 mg/kg; type: ADME, organism-based; set-up: dose 10 mg/kg; conditions: rat, in vivo

Row | SMILES | Cmax
3 | Cn1cc(CC[C@H](CO)n2cnc(C(N)=O)c2)c2cc(OCCCc3ccc(Cl)cc3)ccc21 | 210 ng/mL

target: T1, Adenosine deaminase (Homo sapiens, UniProt P00813); conditions: not given
T1 sequence (P00813 whole entry): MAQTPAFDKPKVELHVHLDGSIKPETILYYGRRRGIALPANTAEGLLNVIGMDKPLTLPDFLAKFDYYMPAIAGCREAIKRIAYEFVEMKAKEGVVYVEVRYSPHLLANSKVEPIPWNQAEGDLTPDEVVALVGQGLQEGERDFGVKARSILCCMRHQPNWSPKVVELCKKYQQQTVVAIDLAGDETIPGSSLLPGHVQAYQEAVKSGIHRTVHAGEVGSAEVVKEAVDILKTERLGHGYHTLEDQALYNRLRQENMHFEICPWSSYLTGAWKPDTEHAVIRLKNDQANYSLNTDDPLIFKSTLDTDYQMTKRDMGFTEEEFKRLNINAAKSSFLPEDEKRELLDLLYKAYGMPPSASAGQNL

Row | SMILES | Ki
4 | CCCCCCOc1ccc2ccn(CC[C@H](CO)n3cnc(C(N)=O)c3)c2c1 | 55 nM
5 | CCCCCCOc1ccc2c(c1)c(CC[C@H](CO)n1cnc(C(N)=O)c1)cn2C | 13 nM
6 | Cn1cc(CC[C@H](CO)n2cnc(C(N)=O)c2)c2cc(OCCCc3ccc(Cl)cc3)ccc21 | 4.9 nM
7 | Cc1ccc(CCCC(=O)Nc2ccc3ccn(CC[C@H](CO)n4cnc(C(N)=O)c4)c3c2)cc1 | 34 nM
8 | CCCCCCOc1ccc2c(ccn2CC[C@H](CO)n2cnc(C(N)=O)c2)c1 | 6200 nM
9 | NC(=O)c1cn([C@@H](CO)CCn2ccc3ccc(OCCCc4ccccc4)cc32)cn1 | 17 nM
10 | Cc1ccc(CCC(=O)Nc2ccc3ccn(CC[C@H](CO)n4cnc(C(N)=O)c4)c3c2)cc1 | 38 nM
11 | NC(=O)c1cn([C@@H](CO)CCn2ccc3cc(OCCCc4ccccc4)ccc32)cn1 | 1900 nM
12 | COc1ccc(CCC(=O)Nc2ccc3ccn(CC[C@H](CO)n4cnc(C(N)=O)c4)c3c2)cc1 | 57 nM
13 | CCCCCC(=O)Nc1ccc2ccn(CC[C@H](CO)n3cnc(C(N)=O)c3)c2c1 | 24 nM
14 | NC(=O)c1cn([C@@H](CO)CCn2ccc3ccc(OCCCCc4ccccc4)cc32)cn1 | 12 nM
15 | NC(=O)c1cn([C@@H](CO)CCn2ccc3ccc(NC(=O)CCCCCc4ccccc4)cc32)cn1 | 91 nM
16 | CCCCOc1ccc2ccn(CC[C@H](CO)n3cnc(C(N)=O)c3)c2c1 | 240 nM
17 | NC(=O)c1cn([C@@H](CO)CCn2ccc3ccc(OCCCc4ccc(Cl)cc4)cc32)cn1 | 13 nM
18 | NC(=O)c1cn([C@@H](CO)CCn2ccc3ccc(NC(=O)CCc4cccnc4)cc32)cn1 | 17 nM
19 | CC(=O)Nc1ccc2ccn(CC[C@H](CO)n3cnc(C(N)=O)c3)c2c1 | 1300 nM
